Earlier results in US20130090323A1, “HETEROCYCLIC COMPOUNDS AND THEIR USES” (Amgen Inc., priority 2010, published 2013).

Columns and labels:
[1] = system: murine model of allergic disease; conditions: absence of functional delta (compound and p110δ D910A mice)
murine model of asthma = conditions: mouse, in vivo
p110δ = biological target: T1, p110δ (Homo sapiens, UniProt O00329)
T1 sequence (O00329 1-1044): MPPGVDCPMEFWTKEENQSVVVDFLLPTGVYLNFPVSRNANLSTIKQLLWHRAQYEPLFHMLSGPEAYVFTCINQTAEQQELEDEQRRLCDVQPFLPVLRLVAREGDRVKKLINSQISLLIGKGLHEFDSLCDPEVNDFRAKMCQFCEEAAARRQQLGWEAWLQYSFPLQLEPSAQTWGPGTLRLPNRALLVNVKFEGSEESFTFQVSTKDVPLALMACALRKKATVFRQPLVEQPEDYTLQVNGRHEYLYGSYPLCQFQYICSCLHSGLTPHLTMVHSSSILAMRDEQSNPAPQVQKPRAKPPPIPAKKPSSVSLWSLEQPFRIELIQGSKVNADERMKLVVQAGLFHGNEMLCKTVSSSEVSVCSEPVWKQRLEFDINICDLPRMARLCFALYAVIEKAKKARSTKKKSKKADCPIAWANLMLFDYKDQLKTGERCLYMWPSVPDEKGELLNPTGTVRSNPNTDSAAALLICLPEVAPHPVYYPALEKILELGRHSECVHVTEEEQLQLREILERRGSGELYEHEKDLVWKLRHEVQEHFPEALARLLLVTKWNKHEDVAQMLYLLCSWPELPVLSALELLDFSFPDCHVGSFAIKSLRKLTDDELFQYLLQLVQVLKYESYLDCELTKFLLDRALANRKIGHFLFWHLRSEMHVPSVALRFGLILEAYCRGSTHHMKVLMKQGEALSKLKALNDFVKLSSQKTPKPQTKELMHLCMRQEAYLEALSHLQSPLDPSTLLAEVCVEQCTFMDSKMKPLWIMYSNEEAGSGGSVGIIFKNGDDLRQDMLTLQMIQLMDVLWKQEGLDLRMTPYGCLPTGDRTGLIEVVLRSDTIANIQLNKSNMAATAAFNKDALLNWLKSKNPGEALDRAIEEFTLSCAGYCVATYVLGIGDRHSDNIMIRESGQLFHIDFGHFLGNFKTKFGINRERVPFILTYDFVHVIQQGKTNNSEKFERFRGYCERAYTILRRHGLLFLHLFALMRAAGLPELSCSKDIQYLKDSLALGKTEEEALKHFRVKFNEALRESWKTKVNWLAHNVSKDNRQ

[2] = system: mouse model of rheumatoid arthritis; conditions: in vivo
[3] = system: model of systemic lupus erythematosis; conditions: in vivo

Row | SMILES | passive cutaneous anaphylaxis (PCA) [1] | inflammation and disease in ovalbumin-induced airway inflammation (murine model of asthma) | inhibition of p110δ (p110δ) | activity against any protein kinases tested (protein kinases) | efficacy in a mouse model of rheumatoid arthritis [2] | onset of disease in a model of systemic lupus erythematosis [3]
1 | Cc1ccccc1-n1c(Cn2cnc3c(N)ncnc32)nc2cccc(C)c2c1=O [IC87114] | significantly reduced | significantly ameliorate inflammation and disease | high nanomolar range (triple digit) | no activity | – | –
2 | O=C1NC(=O)/C(=C\c2ccc3nccnc3c2)S1 [AS 605240] | – | – | – | – | efficacious | delay onset of disease
